These are literature values, as cited in US20110076334A1, “METHODS AND COMPOSITIONS FOR TREATMENT OF RAYNAUD'S PHENOMENON” (priority 2009, published 2011).

For series [1] the following is noted: ultra-short acting calcium channel blocker; marketed injectable emulsion.
The conditions of series [2]: clevidipine.
The conditions of series [3]: in vivo.

Like-named read-outs stand apart in the source and are kept apart here.

Turning to `CCCC(=O)OCOC(=O)C1=C(C)NC(C)=C(C(=O)OC)[C@H]1c1cccc(Cl)c1Cl` (stereo in doubt) [Clevidipine, butyroxymethyl methyl 4-(2′,3′-dichlorophenyl)-2,6-dimethyl-1,4-dihydropyridine-3,5-dicarboxylate], the onset of action in series [1] was 1 to 2 min. In series [2], the initial phase half-life entry was “approximately 1 minute” and the terminal half-life result was “approximately 15 minutes”.
Take “(±)-2-(benzyl-methyl amino) ethyl methyl 1,4-dihydro-2,6-dimethyl-4-(m-nitrophenyl)-3,5-pyridinedicarboxylate monohydrochloride [nicardipine]”: in series [3], the “half-life (second phase)” value is “about 44.8 minutes”, the initial phase half-life result was “approximately 2.7 minutes” and the terminal half-life result is on record as “approximately 14.4 hours”.
